Experimental data: patent publication US7002015B2, “3-Thia-4-arylquinolin-2-one derivatives as smooth muscle relaxants” (Bristol-Myers Squibb Company, priority 2003, dated 2006)

Assays:
Format in all cases: cell-based
[1] = test system: rabbit corpus cavernosum tissue; experiment: Rabbit corpus cavernosum strips: relaxation of phenylephrine-induced force; settings: Oryctolagus cuniculus, inhibition of phenylephrine (3 μM)-induced force as compared to vehicle control, read-out: % Inhibition of force (RCC strips)
Protocol: The ability of the compounds of the invention to relax rabbit corpus cavernosum tissue as a model for the treatment of erectile dysfunction is described as follows. New Zealand white rabbits (3.4–3.7 kg) were euthanized by sodium pentobarbital (100 mg/kg) overdose. The penis from each animal was rapidly removed and immersed in a cold oxygenated modified Krebs Henseleit bicarbonate buffer. The penis' outer tunica was removed and the corpus cavernosum smooth muscle obtained and cut into strips approximately 3–5 mm long. The strips were suspended in tissue baths containing physiological salt solution (see above), and allowed to equilibrate for at least one hour under resting tension of 1.0 gram. Isometric force was measured as described above. Tissue strips were stimulated with the α-agonist phenylephrine (3 μM) and allowed to reach a steady level of force prior to the addition of test compounds. The results are expressed as the percentage inhibition of phenylephrine-induced force as compared to vehicle control.

[2] = test system: cloned mammalian (mSlo or hSlo) BK; experiment: Assay for BK channel openers: two-electrode voltage clamp of BK-mediated outward current in Xenopus oocytes; settings: percent of control IBTX-sensitive current at +140 mV; 20 μM (or as otherwise indicated); 5–10 oocytes
Protocol: The ability of the compounds of the invention to open BK channels and increase whole-cell outward (K^+) BK-mediated currents was assessed under voltage-clamp conditions by determining their ability to increase cloned mammalian (mSlo or hSlo) BK-mediated outward current heterologously expressed in Xenopus oocytes [Butler, A., et al., Science 1993, 261, 221–224; Dworetzky, S. I., et al., Mol. Brain Res. 1994, 27, 189–193; Gribkoff, V. K., et al., Mol. Pharmacol. 1996, 50, 206–217]. The two BK constructs employed represent nearly structurally identical homologous proteins, and have proven to be pharmacologically indistinguishable in our tests. To isolate BK current from native (background, non-BK) current, the specific and potent BK channel-blocking toxin iberiotoxin (IBTX) [Galvez, A., et al., J. Biol. Chem. 1990, 265, 11083–11090] was employed at a supramaximal concentration, e.g., 50–100 nanomolar (“nM”). The relative contribution of BK channel-mediated current to total outward current was determined by subtraction of the current remaining in the presence of IBTX (non-BK current) from the current profiles obtained in all other experimental conditions (control, drug, and wash) [Gribkoff, V. K. et al., Mol. Pharmacol. 1996, 50, 206–217]. […] All compounds were tested in 5–10 oocytes and are reported at the indicated concentration of 20 micromolar (“μM”) (or as otherwise indicated); the effect of the selected compounds of the invention on BK current was expressed as the percent of control IBTX-sensitive current at a single transmembrane voltage (+140 mV) and is listed in Table 1. Recordings were accomplished using standard two-electrode voltage clamp techniques [Stuhmer, W., et al., Methods in Enzymology, 1992, 207, 319–339]; voltage-clamp protocols consisted of 500–750 milliseconds (“ms”) duration step depolarizations, from a holding potential of −60 mV, to a final voltage up to +140 mV in 20 mV steps. The experimental media (modified Barth's solution) consisted of millimolar (“mM”): NaCl (88), NaHCO3 (2.4), KCl (1.0), HEPES (10), MgSO4 (0.82), Ca(NO3)2 (0.33), CaCl2 (0.41); pH 7.5.

[3] = test system: rat small intestine tissue; experiment: Rat small intestine (ileum) segments: inhibition of nifedipine-sensitive force; design: concentration or dose not given beside the values; settings: integral of nifedipine-sensitive force pre- and 30 min post-compound
From the text: The ability of the compounds of the invention to relax rat small intestine tissue as a model for the treatment of irritable bowel syndrome is described as follows. Male rats (Harlan, Sprague Dawley, 250–350 g) were sacrificed by decapitation. A portion of small intestine (ileum) was removed and the attached connective tissues and intestinal contents removed. The ileum was cut into segments of ≦1 cm in length. The segments were mounted longitudinally between fixed hooks in organ baths containing warm (37° C.) physiological salt solution (composition in mM: NaCl 118.4, KCl 4.7, KH2PO4 1.2, MgSO4 1.2, CaCl2 1.8, Glucose 10.1, NaHCO3 25; gassed with 95% O2/5% CO2, pH 7.4). A stable tension of ˜1.5 g was maintained in the tissue segments during the equilibration period of 45 minutes. Changes in muscle tension were measured with isometric force transducers (Grass, FT-03C) and recorded using AcqKnowledge data acquisition system (AcqKnowledge for MP100WS, Biopac Systems Inc., Goleta, Calif.). Compound or vehicle was added in the baths for 30 minutes. “Zero” active force was established at the end of the experiment using nifedipine (20 μM). The effects of compounds or vehicle on force was determined by measuring the integral of nifedipine-sensitive force (including resting tone and spontaneous contractions) pre- and 30 min post-compound (or vehicle) addition. Results are expressed as the percentage inhibition of force. DMSO vehicle inhibited force (integral) by −0.6±3.0% (n=25).

| SMILES | inhibition [1] | % MaxiK opening* [2] | % Inhibition of force (RSI strips) [3] |
| --- | --- | --- | --- |
| O=C(CCN1CCCC1)CSc1c(-c2cc(Cl)ccc2O)c2cc(C(F)(F)F)ccc2[nH]c1=O [Example 2, 4-(5-Chloro-2-hydroxy-phenyl)-3-(2-oxo-4-pyrrolidin-1-yl-butylsulfanyl)-6-trifluoromethyl-1H-quinolin-2-one] | 30% | 335% |  |
| CN1CCN(CCC(=O)CSc2c(-c3cc(Cl)ccc3O)c3cc(C(F)(F)F)ccc3[nH]c2=O)CC1 [Example 3, 4-(5-Chloro-2-hydroxy-phenyl)-3-[4-(4-methyl-piperazin-1-yl)-2-oxo-butylsulfanyl]-6-trifluoromethyl-1H-quinolin-2-one] |  | 550% |  |
| CN(C)C1CCN(C(=O)CSc2c(-c3cc(Cl)ccc3O)c3cc(C(F)(F)F)ccc3[nH]c2=O)CC1 [Example 5, 4-(5-Chloro-2-hydroxy-phenyl)-3-[2-(4-dimethylamino-piperidin-1-yl)-2-oxo-ethylsulfanyl]-6-trifluoromethyl-1H-quinolin-2-one] | 34.5% | 286% | 58.5% |
| O=C(CCN1CCCCC1)CSc1c(-c2cc(Cl)ccc2O)c2cc(C(F)(F)F)ccc2[nH]c1=O [Example 7, 4-(5-Chloro-2-hydroxyphenyl)-3-[[2-oxo-4-(1-piperidinyl)butyl]thio]-6(trifluoromethyl)-2(1H)-quinolinone] |  | 199% | 29% |
| O=C(CCN1CCN(CCO)CC1)CSc1c(-c2cc(Cl)ccc2O)c2cc(C(F)(F)F)ccc2[nH]c1=O [Example 21, 4-(5-Chloro-2-hydroxyphenyl)-3-[[4-[4-(2-hydroxyethyl)-1-piperazinyl]-2-oxobutyl]thio]-6-(trifluoromethyl)-2(1H)-quinolinone] |  | 241% |  |
| O=C(CCN1CCC(O)CC1)CSc1c(-c2cc(Cl)ccc2O)c2cc(C(F)(F)F)ccc2[nH]c1=O [Example 30, 4-(5-Chloro-2-hydroxyphenyl)-3-[[4-(4-hydroxy-1-piperidinyl)-2-oxobutyl]thio]-6-(trifluoromethyl)-2(1H)-quinolinone] |  | 235% |  |
| CN(C)CCCN(C)CCC(=O)CSc1c(-c2cc(Cl)ccc2O)c2cc(C(F)(F)F)ccc2[nH]c1=O [Example 35, 4-(5-Chloro-2-hydroxyphenyl)-3-[[4-[[3-(dimethylamino)propyl]methylamino]-2-oxobutyl]thio]-6-(trifluoromethyl)-2(1H)quinolinone] |  | 178% |  |
| CC(=O)N1CCN(CCCC(=O)CSc2c(-c3cc(Cl)ccc3O)c3cc(C(F)(F)F)ccc3[nH]c2=O)CC1 [Example 63, 1-Acetyl-4-[5-[[4-(5-chloro-2-hydroxyphenyl)-1,2-dihydro-2-oxo-6-(trifluoromethyl)-3-quinolinyl]thio]-4-oxopentyl]piperazine] |  | 284% |  |
| CC1CCCN(CCCC(=O)CSc2c(-c3cc(Cl)ccc3O)c3cc(C(F)(F)F)ccc3[nH]c2=O)C1 (stereo not drawn) [Example 65, 4-(5-Chloro-2-hydroxyphenyl)-3-[[5-(3-methyl-1-piperidinyl)-2-oxopentyl]thio]-6-(trifluoromethyl)-2(1H)-quinolinone] |  | 271% |  |
| CC1CCN(CCCC(=O)CSc2c(-c3cc(Cl)ccc3O)c3cc(C(F)(F)F)ccc3[nH]c2=O)CC1 [Example 66, 4-(5-Chloro-2-hydroxyphenyl)-3-[[5-(4-methyl-1-piperidinyl)-2-oxopentyl]thio]-6-(trifluoromethyl)-2(1H)-quinolinone] |  | 213% |  |
| CN1CCC(N(C)CCCC(=O)CSc2c(-c3cc(Cl)ccc3O)c3cc(C(F)(F)F)ccc3[nH]c2=O)C1 (stereo not drawn) [Example 68, 4-(5-chloro-2-hydroxyphenyl)-3-[[5-[methyl(1-methyl-3-pyrrolidinyl)amino]-2-oxopentyl]thio]-6-(trifluoromethyl)-2(1H)-quinolinone] |  | 226% |  |
| O=C(CCCN1CCC(N2CCCCC2)CC1)CSc1c(-c2cc(Cl)ccc2O)c2cc(C(F)(F)F)ccc2[nH]c1=O [Example 72, 3-[(5-[1,4′-Bipiperidin]-1′-yl-2-oxopentyl)thio]-4-(5-chloro-2-hydroxyphenyl)-6-(trifluoromethyl)-2(1H)-quinolinone] |  | 298% |  |
| CN1CCN(C(=O)CSc2c(-c3cc(Cl)ccc3O)c3cc(C(F)(F)F)ccc3[nH]c2=O)CC1 [Example 84, 1-[[[4-(5-Chloro-2-hydroxyphenyl)-1,2-dihydro-2-oxo-6-(trifluoromethyl)-3-quinolinyl]thio]acetyl]-4-methylpiperazine] | 14.4% | 422% |  |
| O=C(CSc1c(-c2cc(Cl)ccc2O)c2cc(C(F)(F)F)ccc2[nH]c1=O)N1CCN(CCOCCO)CC1 [Example 98, 2-[2-[4-[[[4-(5-Chloro-2-hydroxyphenyl)-1,2-dihydro-2-oxo-6-(trifluoromethyl)-3-quinolinyl]thio]acetyl]-1-piperazinyl]ethoxy]ethanol] | 17% | 205% | 9% |
| O=C(CSc1c(-c2cc(Cl)ccc2O)c2cc(C(F)(F)F)ccc2[nH]c1=O)N1CCN(CCO)CC1 [Example 103, 4-[[[4-(5-Chloro-2-hydroxyphenyl)-1,2-dihydro-2-oxo-6-(trifluoromethyl)-3-quinolinyl]thio]acetyl]-1-piperazineethanol] | 22% | 151% | 22.5% |
| NC(=O)C1CCN(C(=O)CSc2c(-c3cc(Cl)ccc3O)c3cc(C(F)(F)F)ccc3[nH]c2=O)CC1 [Example 105, 1-[[[4-(5-Chloro-2-hydroxyphenyl)-1,2-dihydro-2-oxo-6-(trifluoromethyl)-3-quinolinyl]thio]acetyl]-4-piperidinecarboxamide] | 67% | 203% | 62% |
| CCOC(=O)CN1CCN(C(=O)CSc2c(-c3cc(Cl)ccc3O)c3cc(C(F)(F)F)ccc3[nH]c2=O)CC1 [Example 107, 4-[[[4-(5-Chloro-2-hydroxyphenyl)-1,2-dihydro-2-oxo-6-(trifluoromethyl)-3-quinolinyl]thio]acetyl]-1-piperazineacetic acid, ethyl ester] | 19% | 281% | 46% |
